From PubChem BioAssay AID720632 (Broad Institute, 2013)
Activity calls are given as the source filed them. The rule behind the calls is not given here.

Each compound was assayed against Caspase-6 (Homo sapiens) (UniProt P55212) (assay: human caspase-6 inhibitors, dose response, biochemical, VEID-R110 fluorescence, cherry-pick (AID 720632)). Settings: caspase-6, VEID-R110 fluorogenic substrate.
Sequence of Caspase-6 (Homo sapiens) (P55212 24-179 limits assumed): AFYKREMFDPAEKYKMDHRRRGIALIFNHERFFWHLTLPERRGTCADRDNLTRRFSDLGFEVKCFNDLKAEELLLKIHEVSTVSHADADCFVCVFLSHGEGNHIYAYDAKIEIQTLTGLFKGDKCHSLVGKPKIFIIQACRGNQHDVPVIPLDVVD
Sequence of Caspase-6 (Homo sapiens) (P55212 194-293 limits assumed): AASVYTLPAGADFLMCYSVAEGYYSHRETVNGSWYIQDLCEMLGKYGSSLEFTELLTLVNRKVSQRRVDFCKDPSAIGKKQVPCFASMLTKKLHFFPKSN

| AC50 | SMILES |
| --- | --- |
| 5.86 µM | C[c-]1[c-](C)[c-](C)[c-](C)[c-]1C.[Fe].c1cc2nccc(N3CCCC3)[c-]2c1 (centres undefined) |

Same assay, conditions: caspase-6, VEID-R110 fluorogenic substrate; at 23.5 µM (top of the series)

| activity change, negative = inhibition | SMILES |
| --- | --- |
| inactive | COc1ccccc1C(=O)Nc1ccc2c(c1)OC[C@@H](C)N(CC1CC1)C[C@@H](C)[C@H](OC)CN(C)C2=O |

Same assay, conditions: caspase-6, VEID-R110 fluorogenic substrate; at 26 µM (top of the series)

| activity change, negative = inhibition | SMILES |
| --- | --- |
| inactive | CCC(C)(C)NC(=O)CN(C(=O)CNS(=O)(=O)c1ccc(F)cc1)c1ccc2c(c1)OCCO2 |
| inactive | CO[C@H]1CN(C)C(=O)c2ccc(NC(=O)C3CC3)cc2OC[C@H](C)N(Cc2ccccc2)C[C@H]1C |
| inactive | CC(C)NC(=O)C1(C)CCN1C(=O)c1ccc2c(c1)OCO2 (centres undefined) |
| inactive | CCC(=O)Nc1ccc2c(c1)OC[C@H](C)N(C(=O)CC)C[C@H](C)[C@H](OC)CN(C)C2=O |
| inactive | CSCCC(NS(=O)(=O)c1ccccc1F)C(=O)NCC(C)(C)N1CCOCC1 (centres undefined) |
| inactive | CC(C)NC(=O)N1[C@H](CO)[C@@H](c2ccccc2)C12CN(C(=O)Cc1cccnc1)C2 |
| inactive | O=C(N/N=C/c1ccc[nH]1)c1ccccc1O |
| inactive | Cc1ccc(C)c(N2CCN(C(=O)CCCn3c(=S)[nH]c4cc5c(cc4c3=O)OCO5)CC2)c1 |
| inactive | c1ccc(CCNc2ccc3ncc(-c4cccc5ccccc45)n3n2)nc1 |
| inactive | CCCC(=O)Nc1ccc2c(c1)OC[C@H](C)N(CCC)C[C@H](C)[C@@H](OC)CN(C)C2=O |
| inactive | CCC(=O)Nc1ccc2c(c1)OC[C@@H](C)N(C(=O)CC)C[C@H](C)[C@H](OC)CN(C)C2=O |
| inactive | CSc1ccc(CN2CCC2(C)C(=O)Nc2cccc(NS(C)(=O)=O)c2)cc1 (centres undefined) |
| inactive | O=C(Nc1ccccc1)c1ccccc1OCc1cccc([N+](=O)[O-])c1 |
| inactive | Cc1ccc(Nc2ncnc3sccc23)c(C)c1 |
| inactive | CN1CCN(NC(=O)Nc2ccc(F)cc2)CC1 |
| inactive | Cc1ccc(C(=O)O)cc1NC(=O)c1ccc2c(c1)C(=O)N(c1ccc([N+](=O)[O-])cc1)C2=O |
| inactive | O=C(C[C@@H]1C=C[C@H](NC(=O)C2CC2)[C@H](CO)O1)Nc1nccs1 |
| inactive | C/C(=N\NC(=O)c1ccccc1O)c1ccc(NC(=O)Cc2ccccc2)cc1 |
| inactive | CCOc1ccc(N(CC(=O)Nc2cc(Cl)ccc2C)S(C)(=O)=O)cc1 |
| inactive | CN(c1ccc(C(=O)Nc2ccc3c(c2)n(C)c(=O)n3C)cc1)S(C)(=O)=O |
| inactive | CN1C(=O)CCS(=O)(=O)C1c1ccc(Cl)c(Cl)c1 (centres undefined) |

| activity change, negative = inhibition | SMILES |
| --- | --- |
| inactive | CCC(=O)Nc1ccc2c(c1)OC[C@@H](C)N(C(=O)CC)C[C@@H](C)[C@@H](OC)CN(C)C2=O |
| inactive | COc1ccc(S(=O)(=O)N2CCOCC2)cc1C(=O)NCC(c1ccccc1)c1ccccc1 |
| inactive | O=C(O)C1Sc2[nH]c(=O)sc2C2c3ccc(O)cc3OC(=O)C12 (centres undefined) |
| inactive | CCCC(=O)Nc1ccc2c(c1)OC[C@H](C)NC[C@@H](C)[C@@H](OC)CN(C)C2=O |
| inactive | O=C(c1cccc(S(=O)(=O)N2CCCCCC2)c1)N1CCN(c2ccccc2F)CC1 |
| inactive | COc1ccccc1N(Cc1ccccc1)S(=O)(=O)c1cccc(C(=O)Nc2ccccn2)c1 |
| inactive | Cc1ccc(C(=O)N/N=C\c2ccc(OC(=O)c3cccc(F)c3)cc2)cn1 |
| inactive | COC(=O)CN1C(=O)COc2ccc(S(=O)(=O)N3CCCCC3)cc21 |
| inactive | O=C1c2ccccc2[C@@H]2C[C@@H](O)[C@H](Nc3cccc4ccccc34)CCN12 |
| inactive | CO[C@@H]1CN(C)C(=O)c2ccc(NC(=O)c3ccccc3)cc2OC[C@H](C)N(C(=O)C2CC2)C[C@H]1C |
| inactive | O=C(Nc1ccccc1)C1CCN(S(=O)(=O)c2ccc3c(c2)OCCO3)CC1 |
| inactive | CCc1ccccc1OCC(=O)OCC(=O)N1CC(=O)Nc2ccccc21 |
| inactive | C[C@H](CO)N1C[C@H](C)[C@@H](CN(C)C(=O)c2ccncc2)OCc2cnnn2CCCC1=O |
| inactive | Cc1ccc(/C(N)=N/OC(=O)c2ccc3ccccc3c2)cc1 |
| inactive | C/C(=N/NS(=O)(=O)c1ccc(Cl)cc1)c1cccc(NC(=O)c2ccncc2)c1 |
| inactive | COc1cccc(CNC(=O)CCn2ccc3cc(S(=O)(=O)N4CCCC4)ccc32)c1 |
| inactive | Cc1ccc(S(=O)(=O)n2c(C)nc3ccccc32)cc1 |
| inactive | COc1ccc(CCNC(=O)c2c(C)noc2C)cc1 |
| inactive | O=C(CNC(=O)c1ccccc1F)N/N=C/c1ccc2c(c1)OCO2 |
| inactive | COc1ccc(C(=O)N2CCN(CCCc3ccccc3)CC2)cc1OC |
| inactive | O=C(Nc1ccc(NC(=O)C2CC2)cc1)c1cccs1 |

| activity change, negative = inhibition | SMILES |
| --- | --- |
| inactive | CC(C)(C)NC(=O)C(=O)NN=C1CCCCCCCCCCC1 |
| inactive | C[C@@H]1CN([C@H](C)CO)C(=O)c2cc(Br)cnc2O[C@H]1CN(C)CC1CCCC1 |
| inactive | COCC(=O)Nc1ccc2c(c1)OC[C@@H](C)N(CC1CC1)C[C@H](C)[C@@H](OC)CN(C)C2=O |
| inactive | Cc1ccccc1NC(=O)C1CCCN(S(=O)(=O)c2cnc[nH]2)C1 (centres undefined) |
| inactive | O=C(CCCn1c(=S)[nH]c2cc3c(cc2c1=O)OCO3)N1CCN(c2ccc(Cl)cc2)CC1 |
| inactive | O=c1nc2ccc(Cl)cn2c2ccc(S(=O)(=O)N3CCCCC3)cc12 |
| inactive | Nc1cccnc1Oc1ccc(F)cc1F |
| inactive | NN1C(=O)/C(=C2/Sc3ccccc3N2CCCS(=O)(=O)O)SC1=S |
| inactive | OC[C@H]1[C@H](c2ccc(-c3ccc(F)cc3)cc2)[C@@H]2CN(Cc3cccnc3)CCCCN12 |
| inactive | CN1CCN(CC(=O)Nc2ccc(Cl)cc2Cl)CC1 |
| inactive | COc1ccccc1-n1c(CNC(=O)c2ccc(S(=O)(=O)N3CCCCC3)cc2)n[nH]c1=S |
| inactive | O=C(N/N=C/c1oc(O)c2ccccc12)c1ccccc1O |
| inactive | Oc1cc(Nc2cccnc2)cc2cccnc12 |
| inactive | CCCC(=O)Nc1ccc2c(c1)OC[C@H](C)NC[C@H](C)[C@H](OC)CN(C)C2=O |
| inactive | CN=C(Nc1cccnc1)c1cccc(C(F)(F)F)c1 |
| inactive | COCCn1c(SCCN2CCOCC2)nc2c1c(=O)[nH]c(=O)n2C |
| inactive | O=C(CNC(=O)Cc1ccccc1)NCc1cccs1 |
| inactive | C/C=C/c1ccc([C@@H]2[C@H](CO)N(C(=O)C3CCCC3)C23CN(S(C)(=O)=O)C3)cc1 |
| inactive | Cn1cc(C(CC(=O)O)C(=O)O)c2ccccc21 (centres undefined) |
| inactive | COC(=O)c1ccc(COc2cc([N+](=O)[O-])cc3cccnc23)o1 |
| inactive | O=C(O)C1C=Cc2ccccc2N1C(=O)c1ccccc1 (centres undefined) (tested in a mixture with another compound) |

| activity change, negative = inhibition | SMILES |
| --- | --- |
| inactive | NCC[C@@H]1CC[C@H](NC(=O)c2ccccc2F)[C@@H](CO)O1 |
| inactive | CCCN1C[C@H](C)[C@H](OC)CN(C)C(=O)c2ccc(NC(=O)CC)cc2OC[C@H]1C |
| inactive | CN1CCN(c2ccc(CNC(=O)C3Cc4c(-c5ccc6c(c5)OCO6)ccnc4O3)cc2)CC1 (centres undefined) |
| inactive | Nc1ccccc1Sc1ccc(C(=O)c2ccccc2C(=O)O)cc1[N+](=O)[O-] |
| inactive | CCc1ccc(NS(=O)(=O)c2cc(OC)ccc2OC)cc1 |
| inactive | CCC1=NN(C(=O)c2ccc(Cl)cc2)C(O)(c2ccc(C)cc2)C1 (centres undefined) |
| inactive | CCCC(=O)Nc1ccc2c(c1)OC[C@@H](C)N(C)C[C@@H](C)[C@H](OC)CN(C)C2=O |
| inactive | CO[C@@H]1CN(C)C(=O)c2ccc(NC(=O)C3CC3)cc2OC[C@@H](C)N(Cc2ccccc2)C[C@@H]1C |
| inactive | CCC(=O)Nc1ccc2c(c1)OC[C@H](C)N(C(=O)C1CC1)C[C@H](C)[C@@H](OC)CN(C)C2=O |
| inactive | Cc1ccc(N2C(=O)Cc3ccccc3C2=O)cc1 |
| inactive | O=C(C[C@@H]1C=C[C@@H](NC(=O)c2ccc(F)cc2)[C@@H](CO)O1)NCc1ccncn1 |
| inactive | CC(C)(C)NC(=O)C1CCN(S(=O)(=O)c2cccc3nsnc23)CC1 |
| inactive | CC1CC(C)CN(S(=O)(=O)c2ccc(F)c(C(=O)NC3CCCCC3C)c2)C1 (centres undefined) |
| inactive | COc1ccc(NC(=O)C(F)(OC)C(F)(F)F)c(OC)c1 (centres undefined) |
| inactive | CN1CC2([N+](=O)[O-])CC=C(OCCO)C([N+](=O)[O-])(C1)C2 (centres undefined) |
| inactive | CC(C)CNC(=O)c1cccc2c(-c3ccc(F)c(F)c3)coc12 |
| inactive | O=C(COC(=O)c1ccc([N+](=O)[O-])s1)NC(=O)NCc1ccccc1 |
| inactive | CO[C@H]1CN(C)C(=O)c2ccc(NC(=O)C3CC3)cc2OC[C@@H](C)N(Cc2cccc(F)c2)C[C@@H]1C |
| inactive | Cc1cc(C)cc(N(CC(=O)NC(C)C)C(=O)CCC(=O)Nc2ccccn2)c1 |
